This is an account of results in ChEMBL document CHEMBL1126466, “Chemical synthesis of D-erythro-sphingosine-1-phosphate, and its inhibitory effect on cell motility” (1992).

Several values for one entry are separate records, joined by “and”; a condition that tells them apart may be missing. Equal values may be shown once.

What all share (format): functional, B16/F1
The nature of experiment [1]: The compound was tested for inhibitory effect on motility of mouse melanoma B16/Fl cells in an in vitro Matri gel-coated transwell assay system at 0.1 uM concentration expressed as percent migration.
Experiment [2] in a line: The compound was tested for inhibitory effect on motility of mouse melanoma B16/Fl cells in an in vitro Matri gel-coated transwell assay system at 1 uM concentration expressed as percent migration.
Experiment [3] can be described thus: The compound was tested for inhibitory effect on motility of mouse melanoma B16/Fl cells in an in vitro Matri gel-coated transwell assay system at 0.01 uM concentration expressed as percent migration.
The nature of experiment [4]: The compound was tested for inhibitory effect on motility of mouse melanoma B16/Fl cells in an in vitro Matri gel-coated transwell assay system at 0.001 uM concentration expressed as percent migration.
Experiment [5] in a line: The compound was tested for inhibitory effect on motility of mouse melanoma B16/Fl cells in an in vitro Matri gel-coated transwell assay system at 0.001 uM concentration.
A short description of experiment [6]: The compound was tested for inhibitory effect on motility of mouse melanoma B16/Fl cells in an in vitro Matri gel-coated transwell assay system at 1 uM concentration.
Experiment [7] in a line: The compound was tested for inhibitory effect on motility of mouse melanoma B16/Fl cells in an in vitro Matri gel-coated transwell assay system at 5 uM concentration expressed as percent migration.

In the case of `CCCCCCCCCCCCC/C=C/[C@@H](O)[C@@H](N)COP(=O)(O)O`, the Migration in experiment [1] was 6% and 12%; in experiment [2], 8%; in experiment [3], 12% and 17%; in experiment [4], 122%; in experiment [5], 82%; in experiment [6] it was 10%. Moreover, the Migration in experiment [7] is 34% and 41%.
In the case of `CCCCCCCCCCCCC/C=C/[C@@H](O)[C@@H](N)CO` [SPHINGOSINE], the results for the Migration in experiment [1], in experiment [2] and in experiment [7] were 90%, 78% and 12%, respectively.
